According to patent publication US20130295145A1, “TOPICAL PHARMACEUTICAL COMPOSITIONS COMPRISING ETODOLAC” (CADILA HEALTHCARE LIMITED, priority 2010, published 2013):

Assay: Stability study on nanogel composition of Example 1 (storage at 40° C. and 75% relative humidity)
Format: physicochemical
Conditions: for % Drug in the formulation, 1 Month / % Drug in the formulation, 2 Month / % Drug in the formulation, 3 Month: 40° C. and 75% relative humidity; for % Drug in the formulation, 2 Month: 2 months; for % Drug in the formulation, 3 Month: 3 months
Text: Stability Study on Nanogel Composition of Example 1

[1] = nanogel Formulation 1 of Example 1
[2] = nanogel Formulation 2 of Example 1

% Drug in the formulation, 1 Month [1] [%] | % Drug in the formulation, 2 Month [1] [%] | % Drug in the formulation, 3 Month [1] [%] | % Drug in the formulation, Initial [1] [%] | % Drug in the formulation, 1 Month [2] [%] | % Drug in the formulation, 2 Month [2] [%] | % Drug in the formulation, 3 Month [2] [%] | % Drug in the formulation, Initial [2] [%] | SMILES
99.5 | 97.7 | 95.9 | 101.6 | 97.6 | 103.0 | 102.3 | 100.4 | CCc1cccc2c3c([nH]c12)C(CC)(CC(=O)O)OCC3 (racemic) [Etodolac, (RS)-2-(1,8-Diethyl-4,9-dihydro-3H-pyrano[3,4-b]indol-1-yl)acetic acid]
100.9 | 95.2 | 93.2 | 97.3 | 101.2 | 97.7 | 97.2 | 100.2 | COC(=O)c1ccccc1O [Methyl salicylate]
